“Also recorded” adds a separate entry of the source.

Series [1] can be described thus: DC conductivity of potassium salts in tributylphosphate. It counts as physicochemical. The following applies: 3000 ppm in tributyl phosphate, 21.6-21.9° C. The source says:
Four tributylphosphate samples, with or without dissolved anti-erosion additives, measured for DC conductivity. The four samples were neat tributyl phosphate (control), tributyl phosphate with 3000 ppm FC-98, tributyl phosphate with 3000 ppm PBSK, and tributyl phosphate with 3000 ppm potassium bis(perfluorobutanesulfonyl)imide (DBIK).
The conductivity probe was carefully cleaned with EM Science OMNISOLV™ grade methanol, dried in a clean nitrogen stream, and allowed to equilibrate back to ambient temperature between samples.

Series [2] is described as follows: Surface tension measurements in tributyl phosphate. The following applies: 2000 ppm in tributyl phosphate. It counts as physicochemical. On the procedure: (§1) All surface tensions were determined using a Kruss K12 Tensiometer. The tensiometer was integrated with an automatic dosimat and a computer, using a software package for dynamic contact angle (K121). The program was run using a Wilhelmy platinum plate (PL12) and glass sample vessel (GL7). All parts referenced above including instrument and computer are available from Kruss USA, Charlotte, N.C.
Surface tension measurements were obtained as described above with the exception that the measurments were obtained in tributyl phosphate.

Series [3] is described as follows: Surface tension determination in water (Kruss K12 Tensiometer, Wilhelmy plate). The following applies: for surface tension versus concentration profile, comparison in words: FIG. 1, 2, 3, 5. It counts as physicochemical. The procedure:
Test Procedure I—Surface Tension Determination
as §1

Series [4] in a line: Bioelimination study, fluorochemical sulfonate in male rat liver tissue. It counts as in vivo. The conditions noted are these: for factor lower than C8F17SO3− / factor lower than C6F13SO3−: liver amount; for Amount of Sulfonate, Day 1 / Amount of Sulfonate, Day 14 / Amount of Sulfonate, Day 28: male rat liver tissue, dose 30 (C4), 10 (C6), 3 (C8) mg/kg body weight/day; for Amount of Sulfonate, Day 1: Day 1 following completion of feeding; for Amount of Sulfonate, Day 1N / Amount of Sulfonate, Day 14N / Amount of Sulfonate, Day 28N: male rat liver, normalized to a feeding level of 3 mg/kg body weight per day; for elimination from the body, in words: tested in the form of its potassium salt. On the procedure: Comparative study of potassium perfluorobutanesulfonate (using a dose level of 30 mg/kg body weight/day), potassium perfluorohexanesulfonate (using a dose level of 10 mg/kg body weight/day), and potassium perfluorooctanesulfonate (using a dose level of 3 mg/kg body weight/day).

Series [5] can be described thus: Solubility in 10/1 buffered oxide etch solution.
Setting [6] is: 28 days following completion of feeding.
Where [7] appears, read: 28 days following completion of feeding, after normalization to the same feeding levels.
The mark [8] stands for this setting: immediately following completion of feeding.

In the case of `O=S(=O)([N-]S(=O)(=O)C(F)(F)C(F)(F)C(F)(F)C(F)(F)F)C(F)(F)C(F)(F)C(F)(F)C(F)(F)F.[K+]` [C4F9SO2NKSO2C4F9, potassium bis(perfluorobutanesulfonyl)imide], the “Observed Conductivity” value in series [1] was determined as 13.8 uS/cm. The “Surface Tension @ 2000 ppm” value in series [2] is 27.34 dyne/cm. Further, the “surface tension (surface energy)” value amounted to 61.85 dynes/cm in series [3] (10 ppm), 41.61 dynes/cm in series [3] (100 ppm) and 34.02 dynes/cm in series [3] (1000 ppm). Further, in series [3], the “surface tension versus concentration profile, comparison in words” value was “surface tensions significantly less than PBSK and comparable to potassium perfluorooctanesulfonate at equal concentrations; also recorded: the same or better surface tension in water as C8F17SO3K”.
With `O=S(=O)([O-])C(F)(F)C(F)(F)C(F)(F)C(F)(F)C(F)(F)C(F)(F)F.[K+]` [C6F13SO3^−, potassium perfluorohexanesulfonate], the “factor lower than C8F17SO3−” value in series [4] (setting [6]) is recorded as 6.5. For the same compound, the “factor lower than C8F17SO3−” value in series [4] (setting [7]) is recorded as 21.5. Also, the “factor lower than C8F17SO3−” value in series [4] (setting [8]) stood at 1.3. In series [4], the “Amount of Sulfonate, Day 1” value amounted to 327 ± 52 ppm; the “Amount of Sulfonate, Day 14” value was determined as 61.9 ± 11.7 ppm; the “Amount of Sulfonate, Day 28” value is 36.3 ± 7.4 ppm; the “Amount of Sulfonate, Day 1N” value worked out at 98 ppm. Further, in series [4], the “Amount of Sulfonate, Day 14N” value came to 19 ppm and the “Amount of Sulfonate, Day 28N” value was 11 ppm.
With `O=S(=O)([O-])C(F)(F)C(F)(F)C(F)(F)C(F)(F)C(F)(F)C(F)(F)C(F)(F)C(F)(F)F.O=S(=O)([O-])C(F)(F)C(F)(F)C(F)(F)C(F)(F)C(F)(F)C(F)(F)C(F)(F)C(F)(F)F.[Ca+2]` [Ca(C8F17SO3)2], the “Surface Tension @ 2000 ppm” value in series [2] was determined as 26.15 dyne/cm.
For the compound `O=S(=O)([N-]S(=O)(=O)C(F)(F)C(F)(F)C(F)(F)C(F)(F)F)C(F)(F)C(F)(F)C(F)(F)C(F)(F)F.[Li+]` [DBI-Li, Lithium bis(perfluorobutanesulfonyl)imide], the surface tension stood at 53.2 dyne/cm in series [3] (200 ppm); 48.1 dyne/cm in series [3] (450 ppm); 42.8 dyne/cm in series [3] (960 ppm); 41.5 dyne/cm in series [3] (1300 ppm); 39.1 dyne/cm in series [3] (1700 ppm); 36.0 dyne/cm in series [3] (2600 ppm). Moreover, in series [3], the “surface tension versus concentration profile, comparison in words” value is given as “significantly lower surface tensions than the shorter chain homologues”.
For `N.O=S(=O)(NS(=O)(=O)C(F)(F)C(F)(F)C(F)(F)C(F)(F)F)C(F)(F)C(F)(F)C(F)(F)C(F)(F)F` [DBI-NH4, NH4^+−N(SO2C4F9)2], the surface tension came out at 48.6 dyne/cm in series [3] (200 ppm); 44.1 dyne/cm in series [3] (450 ppm); 40.1 dyne/cm in series [3] (960 ppm); 38.7 dyne/cm in series [3] (1300 ppm); 35.9 dyne/cm in series [3] (1700 ppm); 31.5 dyne/cm in series [3] (2600 ppm). Also, the “surface tension versus concentration profile, comparison in words” value in series [3] is reported as “better surfactants than NH4^+−OSO2C8F17”.
Regarding `O=S(=O)([O-])C(F)(F)C(F)(F)C(F)(F)C(F)(F)F.[K+]` [Example C4F9SO3K, Potassium perfluorobutanesulfonate], in series [1], the “Observed Conductivity” value worked out at 3.5 uS/cm. The “factor lower than C6F13SO3−” value in series [4] (setting [6]) is > 1400. Further, the “factor lower than C6F13SO3−” value in series [4] (setting [7]) turned out to be 4400. Besides, the “factor lower than C6F13SO3−” value in series [4] (setting [8]) is reported as > 100. For the same compound, in series [4], the “Amount of Sulfonate, Day 1” value was determined as 3.09 ± 1.58 ppm; the “Amount of Sulfonate, Day 14” value was 0.126 ± 0.084 ppm; the “Amount of Sulfonate, Day 28” value turned out to be 0.025 ± 0.015 ppm; the “Amount of Sulfonate, Day 1N” value is recorded as 0.31 ppm. Further, in series [4], the “Amount of Sulfonate, Day 14N” value amounted to 0.0126 ppm and the “Amount of Sulfonate, Day 28N” value turned out to be 0.0025 ppm. The “elimination from the body, in words” value in series [4] (listed as C4F9SO3^−) was “unexpectedly fast and effective elimination”. Moreover, the “elimination from the body, in words” value in series [4] (listed as perfluorobutanesulfonate) is “eliminates from the body more rapidly than perfluorohexanesulfonate and much more rapidly than perfluorooctanelsulfonate”. In addition, the “Surface Tension @ 2000 ppm” value in series [2] amounted to 27.32 dyne/cm. For the same compound, the “surface tension (surface energy)” value in series [3] (10 ppm) is recorded as 70 dynes/cm. For the same compound, in series [3] (100 ppm), the “surface tension (surface energy)” value came to 67.5 dynes/cm. In series [3] (1000 ppm), the “surface tension (surface energy)” value is reported as 53 dynes/cm. In series [3], the “surface tension versus concentration profile, comparison in words” value is listed as “less effective than perfluorooctanesulfonate in lowering the surface tension of water”.
In the case of `O=S(=O)([O-])C(F)(F)C(F)(F)C(F)(F)C(F)(F)C(F)(F)C(F)(F)C(F)(F)C(F)(F)F.[K+]` [Example C8F17SO3K, Potassium perfluorooctanesulfonate], in series [4], the “Amount of Sulfonate, Day 1” value is 419 ± 86 ppm; the “Amount of Sulfonate, Day 14” value is 309 + 34 ppm; the “Amount of Sulfonate, Day 28” value was 237 ± 25 ppm; the “Amount of Sulfonate, Day 1N” value was found to be 419 ppm. Moreover, in series [4], the “Amount of Sulfonate, Day 14N” value worked out at 309 ppm and the “Amount of Sulfonate, Day 28N” value is reported as 237 ppm. For the same compound, in series [2], the “Surface Tension @ 2000 ppm” value amounted to 26.96 dyne/cm. In addition, the “surface tension (surface energy)” value in series [3] (10 ppm) was 67.68 dynes/cm. For the same compound, in series [3] (100 ppm), the “surface tension (surface energy)” value was 54.09 dynes/cm. Also, in series [3] (1000 ppm), the “surface tension (surface energy)” value turned out to be 33.17 dynes/cm.
Regarding `N.O=S(=O)(O)C(F)(F)C(F)(F)C(F)(F)C(F)(F)C(F)(F)C(F)(F)C(F)(F)C(F)(F)F` [FC-93, ammonium perfluorooctanesulfonate], the “solubility in buffered oxide etch” value in series [5] (all concentrations (FIG. 4)) is given as “precipitated”.
Regarding `O=S(=O)([O-])C1(F)C(F)(F)C(F)(F)C(F)(C(F)(F)C(F)(F)F)C(F)(F)C1(F)F.[K+]` (stereo not drawn) [FC-98, Potassium perfluoroethylcyclohexanesulfonate], the “Observed Conductivity” value in series [1] was determined as 3.2 uS/cm. Further, the “Surface Tension @ 2000 ppm” value in series [2] is 26.94 dyne/cm.
`O=S(=O)([N-]S(=O)(=O)C(F)(F)C(F)(F)C(F)(F)C(F)(F)F)C(F)(F)C(F)(F)C(F)(F)C(F)(F)F.O=S(=O)([N-]S(=O)(=O)C(F)(F)C(F)(F)C(F)(F)C(F)(F)F)C(F)(F)C(F)(F)C(F)(F)C(F)(F)F.[Mg+2]` [Mg (DBI)2, Mg^+2[^−N(SO2C4F9)2]2]: the “Surface Tension @ 2000 ppm” value in series [2] was 27.04 dyne/cm. Moreover, the surface tension in series [3] (200 ppm) is 46.6 dyne/cm; in series [3] (450 ppm), 40.2 dyne/cm; in series [3] (960 ppm), 35.0 dyne/cm; in series [3] (1300 ppm), 32.0 dyne/cm; in series [3] (1700 ppm) it was 29.0 dyne/cm; in series [3] (2600 ppm), 26.3 dyne/cm.
`O=S(=O)([O-])C(F)(F)C(F)(F)C(F)(F)C(F)(F)C(F)(F)C(F)(F)C(F)(F)C(F)(F)F.O=S(=O)([O-])C(F)(F)C(F)(F)C(F)(F)C(F)(F)C(F)(F)C(F)(F)C(F)(F)C(F)(F)F.[Mg+2]` [Mg(C8F17SO3)2]: the “Surface Tension @ 2000 ppm” value in series [2] is reported as 27.36 dyne/cm.
Regarding `O.O.O.O.O.O.O=S(=O)([O-])C(F)(F)C(F)(F)C(F)(F)C(F)(F)F.O=S(=O)([O-])C(F)(F)C(F)(F)C(F)(F)C(F)(F)F.[Mg+2]` [Mg(SO3C4F9)2 · 6H2O], the “Surface Tension @ 2000 ppm” value in series [2] is on record as 26.93 dyne/cm.
On to `O=S(=O)(NS(=O)(=O)C(F)(F)C(F)(F)C(F)(F)C(F)(F)F)C(F)(F)C(F)(F)C(F)(F)C(F)(F)F` [bis(perfluorobutanesulfonyl)imide, HN(SO2C4F9)2], for which, in series [3], the “surface tension versus concentration profile, comparison in words” value was “better surfactants than NH4^+−OSO2C8F17”. Besides, in series [5] (1000 ppm), the appearance of solution result is recorded as “slightly hazy to the eye”.
Regarding “[^−N(SO2C4F9)2]2 (+)H3NCH(CH3)CH2[OCH(CH3)CH2]a[OCH2CH2]8.5[OCH(CH3)CH2]CNH3(+) (a+c=2.5) [(DBI)2 JEFFAMINE ™ ED600]”, the entries for the “surface tension (surface energy)” value in series [3] (10 ppm), in series [3] (100 ppm) and in series [3] (1000 ppm) were 57.4 dynes/cm, 40.7 dynes/cm and 32.7 dynes/cm, respectively. Also, the “surface tension versus concentration profile, comparison in words” value in series [3] is recorded as “significantly lower surface tensions than C4F9SO3K”.

Values taken from patent publication US7030067B2, “Bis(perfluoroalkanesulfonyl)imides and their salts as surfactants/additives for applications having extreme environments and methods therefor” (priority 2001, dated 2006).
